Literature values in US20100323044A1, “ABNORMAL PROTEIN REMOVING METHOD” (FANCL CORPORATION, priority 2004, published 2010).

Conditions: assumed, J Nutr 134 (2004); broken down by intestinal bacteria into soyasapogenol B, then absorbed

absorption in the human intestines: not absorbed directly
Structure (SMILES): C[C@@H]1O[C@@H](O[C@H]2[C@H](O[C@H]3[C@H](O[C@H]4CC[C@@]5(C)[C@@H](CC[C@]6(C)[C@@H]5CC=C5[C@@H]7CC(C)(C)C[C@@H](O)[C@]7(C)CC[C@]56C)[C@@]4(C)CO)O[C@H](C(=O)O)[C@@H](O)[C@@H]3O)O[C@H](CO)[C@H](O)[C@@H]2O)[C@H](O)[C@H](O)[C@H]1O [soyasaponin I]
